#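 Five compound concentrations were applied to cells in 96-well plates for 48 hours; endpoints were derived by simple linear interpolation of the resulting dose-response curve. GI50 is the concentration that inhibits growth by half.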 Activity calls are given as the source filed them. No stated cut-off is given here; in the data, active = GI50 up to about 1.1 µM and inactive = higher.
# Experiments:
# Assay in all cases: NCI tumour cell line growth inhibition, 48 h
# SF-295 = tested on: SF-295
# NCI-H522 = tested on: NCI-H522
# SK-MEL-28 = tested on: SK-MEL-28
# SNB-19 = tested on: SNB-19
# COLO 205 = tested on: COLO 205
# OVCAR-3 = tested on: OVCAR-3
# SK-MEL-2 = tested on: SK-MEL-2
# MOLT-4 = tested on: MOLT-4
# M19-MEL = tested on: M19-MEL
# HOP-62 = tested on: HOP-62
# NCI-H460 = tested on: NCI-H460
# IGROV-1 = tested on: IGROV-1
# OVCAR-4 = tested on: OVCAR-4
# LOX IMVI = tested on: LOX IMVI
# ACHN = tested on: ACHN
# HCT-15 = tested on: HCT-15
# SK-OV-3 = tested on: SK-OV-3
Compound,GI50 (SF-295),GI50 (NCI-H522),GI50 (SK-MEL-28),GI50 (SNB-19),GI50 (COLO 205),GI50 (OVCAR-3),GI50 (SK-MEL-2),GI50 (MOLT-4),GI50 (M19-MEL),GI50 (HOP-62),GI50 (NCI-H460),GI50 (IGROV-1),GI50 (OVCAR-4),GI50 (LOX IMVI),GI50 (ACHN),GI50 (HCT-15),GI50 (SK-OV-3)
CN(C)CC1(C)CC/C(=C\c2ccccc2)C1=O (centres undefined),> 100 µM (inactive),39.8 µM (inactive),> 100 µM (inactive),44.1 µM (inactive),> 100 µM (inactive),> 100 µM (inactive),> 100 µM (inactive),> 100 µM (inactive),> 100 µM (inactive),> 100 µM (inactive),> 100 µM (inactive),> 100 µM (inactive),> 100 µM (inactive),> 100 µM (inactive),> 100 µM (inactive),63 µM,–
N#CC(C#N)=Cc1ccc(Oc2ccccc2)cc1,22.2 µM (inactive),23.7 µM (inactive),15.8 µM (inactive),37.3 µM (inactive),45.5 µM (inactive),26.4 µM (inactive),24.3 µM (inactive),28.6 µM (inactive),32 µM (inactive),65.8 µM (inactive),53.2 µM (inactive),29.9 µM (inactive),–,15.8 µM (inactive),21.3 µM (inactive),70.5 µM,> 100 µM (inactive)
CC1=C(C(=O)CC(=O)C(=O)Nc2cccc(Cl)c2C)Sc2ccccc2N1,> 100 µM (inactive),> 100 µM (inactive),> 100 µM (inactive),> 100 µM (inactive),–,> 100 µM (inactive),> 100 µM (inactive),> 100 µM (inactive),> 100 µM (inactive),> 100 µM (inactive),> 100 µM (inactive),> 100 µM (inactive),> 100 µM (inactive),> 100 µM (inactive),> 100 µM (inactive),> 100 µM,> 100 µM (inactive)
S=c1nc(N2CCCCC2)ss1,29 µM (inactive),–,18.4 µM (inactive),27.6 µM (inactive),–,–,20 µM (inactive),12.4 µM (inactive),18.2 µM (inactive),26.7 µM (inactive),22.3 µM (inactive),25.1 µM (inactive),38.2 µM (inactive),–,27 µM (inactive),21.1 µM,> 100 µM (inactive)
C/C(=N\NC(=O)CC(=O)Nc1ccc(Cl)cc1)c1cc2ccccc2oc1=O,> 100 µM (inactive),> 100 µM (inactive),> 100 µM (inactive),> 100 µM (inactive),> 100 µM (inactive),> 100 µM (inactive),–,> 100 µM (inactive),> 100 µM (inactive),> 100 µM (inactive),> 100 µM (inactive),> 100 µM (inactive),–,> 100 µM (inactive),> 100 µM (inactive),> 100 µM,> 100 µM (inactive)
COc1cc(C(=C2SCCS2)c2nccc3cc(OC)c(OC)cc23)c([N+](=O)[O-])cc1OC,56 µM (inactive),36.6 µM (inactive),> 100 µM (inactive),> 100 µM (inactive),35.3 µM (inactive),40.9 µM (inactive),> 100 µM (inactive),21.6 µM (inactive),72.9 µM (inactive),> 100 µM (inactive),–,> 100 µM (inactive),–,80.9 µM (inactive),29.9 µM (inactive),–,65.9 µM (inactive)
C/C(=N\NC(N)=S)C(CN(CC(C)C)CC(C)C)C(=O)Nc1ccc(C)cc1C (centres undefined),> 100 µM (inactive),> 100 µM (inactive),> 100 µM (inactive),> 100 µM (inactive),> 100 µM (inactive),> 100 µM (inactive),> 100 µM (inactive),> 100 µM (inactive),> 100 µM (inactive),> 100 µM (inactive),> 100 µM (inactive),> 100 µM (inactive),> 100 µM (inactive),> 100 µM (inactive),> 100 µM (inactive),> 100 µM,> 100 µM (inactive)
Cc1ccccc1C1=[N+]([O-])c2ccc(Cl)cc2C1=O,14.6 µM (inactive),11.5 µM (inactive),21.1 µM (inactive),28.1 µM (inactive),7.76 µM (inactive),2.6 µM (inactive),14.1 µM (inactive),3.6 µM (inactive),8.05 µM (inactive),20 µM (inactive),15.4 µM (inactive),15.3 µM (inactive),–,7.78 µM (inactive),12.9 µM (inactive),13.3 µM,26.4 µM (inactive)
CC(=O)NC1C(OCc2ccccc2)OC(COC(=O)CCCCCCCCCCNc2ccc([N+](=O)[O-])c3[nH]c4ccccc4c(=O)c23)C(O)C1OC(C)C(=O)NC(C)C(=O)NC(CCC(N)=O)C(=O)OCc1ccccc1 (centres undefined),> 100 µM (inactive),> 100 µM (inactive),> 100 µM (inactive),> 100 µM (inactive),> 100 µM (inactive),> 100 µM (inactive),> 100 µM (inactive),> 100 µM (inactive),> 100 µM (inactive),> 100 µM (inactive),> 100 µM (inactive),> 100 µM (inactive),> 100 µM (inactive),> 100 µM (inactive),> 100 µM (inactive),> 100 µM,> 100 µM (inactive)
Cc1ccc(S(=O)(=O)CNC(=S)CCCC(=S)NCS(=O)(=O)c2ccc(C)cc2)cc1,> 100 µM (inactive),41.4 µM (inactive),–,> 100 µM (inactive),> 100 µM (inactive),48.9 µM (inactive),–,22.2 µM (inactive),> 100 µM (inactive),> 100 µM (inactive),> 100 µM (inactive),> 100 µM (inactive),> 100 µM (inactive),18.6 µM (inactive),–,53.8 µM,> 100 µM (inactive)
CCCCCCCC(=O)OCC1OC(n2cc(F)c(=O)[nH]c2=O)C(N)C(O)C1O (centres undefined),> 100 µM (inactive),> 100 µM (inactive),> 100 µM (inactive),> 100 µM (inactive),> 100 µM (inactive),> 100 µM (inactive),> 100 µM (inactive),> 100 µM (inactive),> 100 µM (inactive),> 100 µM (inactive),> 100 µM (inactive),> 100 µM (inactive),> 100 µM (inactive),–,> 100 µM (inactive),> 100 µM,> 100 µM (inactive)
N#C[C-](C#N)[n+]1ccc(Cl)cc1,19 µM (inactive),3.19 µM (inactive),–,32.1 µM (inactive),18.5 µM (inactive),17.7 µM (inactive),–,12.7 µM (inactive),12.4 µM (inactive),29.2 µM (inactive),22.5 µM (inactive),19.1 µM (inactive),24.9 µM (inactive),11.2 µM (inactive),–,14.4 µM,34 µM (inactive)
Cc1c2cc[n+](C)cc2c(C)c2c1[nH]c1ccc(OC(C)(C)C)cc12,> 100 µM (inactive),> 100 µM (inactive),> 100 µM (inactive),–,> 100 µM (inactive),–,> 100 µM (inactive),> 100 µM (inactive),> 100 µM (inactive),> 100 µM (inactive),> 100 µM (inactive),> 100 µM (inactive),> 100 µM (inactive),> 100 µM (inactive),> 100 µM (inactive),> 100 µM,> 100 µM (inactive)

# Reference: ChEMBL document CHEMBL1201862, “PubChem BioAssay data set” (2004)
